Measurements as given in PubChem BioAssay (NCI).
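Dose response: 5 concentrations. Exposure: 48 h. Format: 96-well plates. Endpoint: linear interpolation; highest concentration if not reached. TGI: total growth inhibition.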

Columns and labels:
Assay in all cases: NCI anticancer screen, dose series, 48 h
[1] = test system: 786-0 renal
[2] = test system: A498 renal
[3] = test system: A549 NSCLC
[4] = test system: ACHN renal
[5] = test system: BT-549 breast
[6] = test system: CAKI-1 renal
[7] = test system: CCRF-CEM leukemia
[8] = test system: COLO 205 colon
[9] = test system: DU-145 prostate
[10] = test system: EKVX NSCLC
[11] = test system: HCC-2998 colon
[12] = test system: HCT-116 colon
[13] = test system: HCT-15 colon
[14] = test system: HL-60(TB) leukemia
[15] = test system: HOP-62 NSCLC
[16] = test system: HOP-92 NSCLC
[17] = test system: HS 578T breast
[18] = test system: HT29 colon
[19] = test system: IGROV1 ovarian
[20] = test system: KM12 colon
[21] = test system: LOX IMVI melanoma
[22] = test system: M14 melanoma
[23] = test system: MALME-3M melanoma
[24] = test system: MCF7 breast
[25] = test system: MDA-MB-231 breast
[26] = test system: MDA-MB-435
[27] = test system: MDA-N
[28] = test system: MOLT-4 leukemia
[29] = test system: NCI-H226 lung
[30] = test system: NCI-H23 lung
[31] = test system: NCI-H460 lung
[32] = test system: NCI-H522 lung
[33] = test system: NCI/ADR-RES ovarian
[34] = test system: OVCAR-3 ovarian
[35] = test system: OVCAR-4 ovarian
[36] = test system: OVCAR-5 ovarian
[37] = test system: OVCAR-8 ovarian
[38] = test system: PC-3 prostate
[39] = test system: RPMI-8226 leukemia
[40] = test system: SF-268 CNS
[41] = test system: SF-295 CNS
[42] = test system: SF-539 CNS
[43] = test system: SK-MEL-2 melanoma
[44] = test system: SK-MEL-28 melanoma
[45] = test system: SK-MEL-5 melanoma
[46] = test system: SK-OV-3 ovarian
[47] = test system: SN12C renal
[48] = test system: SNB-19 CNS
[49] = test system: SNB-75 CNS
[50] = test system: SR leukemia
[51] = test system: SW-620 colon
[52] = test system: T-47D breast
[53] = test system: TK-10 renal
[54] = test system: U251 CNS
[55] = test system: UACC-257 melanoma
[56] = test system: UACC-62 melanoma
[57] = test system: K-562 leukemia
[58] = test system: RXF 393 renal
[59] = test system: UO-31 renal

SMILES: O=c1[nH]c(Nc2ccccc2)nc2c1ncn2CC(O)CSCCO (stereo not drawn)
- TGI [1]: > 100 µM
- TGI [2]: > 100 µM
- TGI [3]: > 100 µM
- TGI [4]: > 100 µM
- TGI [5]: > 100 µM
- TGI [6]: > 100 µM
- TGI [7]: > 100 µM
- TGI [8]: > 100 µM
- TGI [9]: > 100 µM
- TGI [10]: > 100 µM
- TGI [11]: > 100 µM
- TGI [12]: > 100 µM
- TGI [13]: > 100 µM
- TGI [14]: > 100 µM
- TGI [15]: > 100 µM
- TGI [16]: > 100 µM
- TGI [17]: > 100 µM
- TGI [18]: > 100 µM
- TGI [19]: > 100 µM
- TGI [20]: > 100 µM
- TGI [21]: > 100 µM
- TGI [22]: > 100 µM
- TGI [23]: > 100 µM
- TGI [24]: > 100 µM
- TGI [25]: > 100 µM
- TGI [26]: > 100 µM
- TGI [27]: > 100 µM
- TGI [28]: > 100 µM
- TGI [29]: > 100 µM
- TGI [30]: > 100 µM
- TGI [31]: > 100 µM
- TGI [32]: > 100 µM
- TGI [33]: > 100 µM
- TGI [34]: > 100 µM
- TGI [35]: > 100 µM
- TGI [36]: > 100 µM
- TGI [37]: > 100 µM
- TGI [38]: > 100 µM
- TGI [39]: > 100 µM
- TGI [40]: > 100 µM
- TGI [41]: > 100 µM
- TGI [42]: > 100 µM
- TGI [43]: > 100 µM
- TGI [44]: > 100 µM
- TGI [45]: > 100 µM
- TGI [46]: > 100 µM
- TGI [47]: > 100 µM
- TGI [48]: > 100 µM
- TGI [49]: > 100 µM
- TGI [50]: > 100 µM
- TGI [51]: > 100 µM
- TGI [52]: > 100 µM
- TGI [53]: > 100 µM
- TGI [54]: > 100 µM
- TGI [55]: > 100 µM
- TGI [56]: > 100 µM

SMILES: COC(=O)C1(NC(=O)C(CC(=O)OCc2ccccc2)NC(=O)OCc2ccccc2)CCCCCC1 (stereo not drawn)
- TGI [1]: > 100 µM
- TGI [3]: > 100 µM
- TGI [4]: > 100 µM
- TGI [5]: 61.5 µM
- TGI [6]: 48.5 µM
- TGI [8]: 47.3 µM
- TGI [9]: > 100 µM
- TGI [10]: > 100 µM
- TGI [12]: > 100 µM
- TGI [13]: > 100 µM
- TGI [14]: 51 µM
- TGI [15]: 67.5 µM
- TGI [16]: > 100 µM
- TGI [17]: > 100 µM
- TGI [18]: 50.7 µM
- TGI [19]: > 100 µM
- TGI [57]: 82.9 µM
- TGI [20]: > 100 µM
- TGI [21]: 66 µM
- TGI [22]: > 100 µM
- TGI [23]: > 100 µM
- TGI [24]: > 100 µM
- TGI [25]: > 100 µM
- TGI [26]: 74.4 µM
- TGI [27]: 61.4 µM
- TGI [28]: > 100 µM
- TGI [29]: 72.7 µM
- TGI [30]: > 100 µM
- TGI [31]: > 100 µM
- TGI [32]: > 100 µM
- TGI [33]: 82.5 µM
- TGI [34]: > 100 µM
- TGI [35]: 43.8 µM
- TGI [36]: > 100 µM
- TGI [37]: 90.5 µM
- TGI [38]: > 100 µM
- TGI [39]: 21.9 µM
- TGI [58]: > 100 µM
- TGI [40]: > 100 µM
- TGI [41]: > 100 µM
- TGI [42]: 49.2 µM
- TGI [44]: > 100 µM
- TGI [45]: 28.8 µM
- TGI [46]: 94.6 µM
- TGI [48]: > 100 µM
- TGI [49]: > 100 µM
- TGI [50]: 87.4 µM
- TGI [51]: > 100 µM
- TGI [52]: > 100 µM
- TGI [53]: > 100 µM
- TGI [54]: > 100 µM
- TGI [56]: 34.3 µM
- TGI [59]: > 100 µM

SMILES: c1ccc(NN(Cc2cnccn2)c2ccccc2)cc1
- TGI [1]: > 100 µM
- TGI [2]: > 100 µM
- TGI [3]: > 100 µM
- TGI [4]: > 100 µM
- TGI [5]: > 100 µM
- TGI [6]: > 100 µM
- TGI [7]: 51.2 µM
- TGI [8]: > 100 µM
- TGI [9]: > 100 µM
- TGI [10]: > 100 µM
- TGI [12]: > 100 µM
- TGI [13]: > 100 µM
- TGI [14]: > 100 µM
- TGI [15]: > 100 µM
- TGI [16]: 89.7 µM
- TGI [17]: > 100 µM
- TGI [18]: > 100 µM
- TGI [19]: > 100 µM
- TGI [57]: > 100 µM
- TGI [20]: > 100 µM
- TGI [21]: > 100 µM
- TGI [22]: > 100 µM
- TGI [23]: > 100 µM
- TGI [24]: > 100 µM
- TGI [25]: > 100 µM
- TGI [26]: > 100 µM
- TGI [27]: > 100 µM
- TGI [28]: > 100 µM
- TGI [29]: > 100 µM
- TGI [30]: > 100 µM
- TGI [31]: > 100 µM
- TGI [32]: > 100 µM
- TGI [33]: > 100 µM
- TGI [34]: > 100 µM
- TGI [35]: > 100 µM
- TGI [36]: > 100 µM
- TGI [37]: > 100 µM
- TGI [38]: > 100 µM
- TGI [39]: > 100 µM
- TGI [58]: > 100 µM
- TGI [40]: > 100 µM
- TGI [41]: > 100 µM
- TGI [42]: > 100 µM
- TGI [43]: > 100 µM
- TGI [44]: > 100 µM
- TGI [45]: > 100 µM
- TGI [46]: > 100 µM
- TGI [47]: > 100 µM
- TGI [48]: > 100 µM
- TGI [49]: > 100 µM
- TGI [50]: > 100 µM
- TGI [51]: > 100 µM
- TGI [52]: > 100 µM
- TGI [53]: > 100 µM
- TGI [54]: > 100 µM
- TGI [55]: > 100 µM
- TGI [56]: > 100 µM

SMILES: COc1ccc(N2C(=O)C3c4[nH]c5ccc(OCc6ccccc6)cc5c4C4CCC(c5ccccc5)CC4C3C2=O)cc1 (stereo not drawn)
- TGI [1]: 7.51 µM
- TGI [2]: 50.4 µM
- TGI [3]: > 39 µM
- TGI [4]: 41.5 µM
- TGI [5]: 17 µM
- TGI [6]: 25.8 µM
- TGI [7]: 26.8 µM
- TGI [8]: > 100 µM
- TGI [9]: > 100 µM
- TGI [10]: 38.2 µM
- TGI [11]: > 100 µM
- TGI [12]: > 100 µM
- TGI [13]: > 84 µM
- TGI [14]: 33.3 µM
- TGI [15]: 10.2 µM
- TGI [16]: 10.3 µM
- TGI [17]: 25.8 µM
- TGI [18]: > 100 µM
- TGI [19]: > 74.3 µM
- TGI [57]: 12 µM
- TGI [20]: > 85.7 µM
- TGI [21]: > 100 µM
- TGI [22]: > 100 µM
- TGI [23]: 45.6 µM
- TGI [24]: > 75 µM
- TGI [25]: 27.3 µM
- TGI [26]: 12.1 µM
- TGI [27]: > 100 µM
- TGI [28]: > 36.8 µM
- TGI [29]: > 83.8 µM
- TGI [30]: 32.4 µM
- TGI [31]: 12.3 µM
- TGI [32]: > 44.6 µM
- TGI [33]: > 100 µM
- TGI [34]: > 89 µM
- TGI [35]: 3.04 µM
- TGI [36]: > 95.8 µM
- TGI [37]: 47.5 µM
- TGI [38]: 96.5 µM
- TGI [58]: 21.1 µM
- TGI [40]: 37.4 µM
- TGI [41]: 36.5 µM
- TGI [42]: 7.17 µM
- TGI [43]: 68 µM
- TGI [45]: > 93.7 µM
- TGI [46]: 22.6 µM
- TGI [47]: > 100 µM
- TGI [48]: 40.1 µM
- TGI [49]: 27.2 µM
- TGI [50]: 7.14 µM
- TGI [51]: 4.61 µM
- TGI [52]: 77.3 µM
- TGI [53]: 42.2 µM
- TGI [54]: 11.2 µM
- TGI [55]: > 100 µM
- TGI [56]: 29 µM
- TGI [59]: > 96.9 µM
